Measurements as given in patent US20230303552A1, “ARYLSULFONYL DERIVATIVES AND THEIR USE AS MUSCARINIC ACETYLCHOLINE RECEPTOR M5 INHIBITORS” (Vanderbilt University, priority 2020, published 2023).

Target: T1, human M5 receptors (hM5) (Homo sapiens, UniProt P08912)
T1 construct: expressed in transfected cells
T1 sequence (P08912 1-532): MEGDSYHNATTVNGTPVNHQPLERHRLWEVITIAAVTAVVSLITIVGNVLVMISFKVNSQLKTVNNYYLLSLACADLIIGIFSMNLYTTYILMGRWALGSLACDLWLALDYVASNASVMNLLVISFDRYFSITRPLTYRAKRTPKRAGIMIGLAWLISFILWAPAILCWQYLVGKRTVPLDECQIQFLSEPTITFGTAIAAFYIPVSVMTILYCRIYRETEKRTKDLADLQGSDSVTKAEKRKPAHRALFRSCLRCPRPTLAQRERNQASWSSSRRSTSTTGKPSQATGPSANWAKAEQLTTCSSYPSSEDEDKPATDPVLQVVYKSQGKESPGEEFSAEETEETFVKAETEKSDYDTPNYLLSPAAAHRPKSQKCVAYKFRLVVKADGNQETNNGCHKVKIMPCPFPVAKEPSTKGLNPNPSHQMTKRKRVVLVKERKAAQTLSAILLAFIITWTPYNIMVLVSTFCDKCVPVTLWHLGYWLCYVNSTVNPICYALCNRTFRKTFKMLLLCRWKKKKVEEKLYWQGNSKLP
Experiment: Cell-based functional calcium mobilization assay of mAChR M5 activity (inhibition of EC80 acetylcholine response) in CHO cells
Conditions: CHO cells stably expressing hM5; for IC50: calcium flux (Fluo-4), EC80 acetylcholine addition; for EC80 MIN: minimum of EC80 acetylcholine response, normalized to maximum acetylcholine response
Method in brief: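 CHO cells stably expressing human M5, loaded with Fluo-4 AM in HBSS/20 mM HEPES/2.5 mM probenecid pH 7.4. Compound added 140 s before acetylcholine EC20, then EC80 added 125 s later. Calcium flux normalized to maximal acetylcholine response; IC50 from ten-point curves in the EC80 window.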

Row | IC50 [µM] | EC80 MIN [%] | SMILES
1 | 0.032 | 2 | O=C(Nc1ccc2scnc2c1)[C@@H]1CCN(S(=O)(=O)c2ccc3c(c2)CCO3)C1 [Compound 24, (R)-N-(benzo[d]thiazol-5-yl)-1-((2,3-dihydrobenzofuran-5-yl)sulfonyl)pyrrolidine-3-carboxamide]
2 | > 10 | 42 | Cn1cnc2cc(S(=O)(=O)N3CCC(C(=O)Nc4ccc5scnc5c4)CC3)ccc21 [Compound 27, N-(benzo[d]thiazol-5-yl)-1-((1-methyl-1H-benzo[d]imidazol-5-yl)sulfonyl)piperidine-4-carboxamide]
3 | > 10 | 9 | Cn1nnc2cc(S(=O)(=O)N3CCC(C(=O)Nc4ccc5scnc5c4)CC3)ccc21 [Compound 28, N-(benzo[d]thiazol-5-yl)-1-((1-methyl-1H-benzo[d][1,2,3]triazol-5-yl)sulfonyl)piperidine-4-carboxamide]
4 | > 10 | 60 | O=C(Nc1ccc2scnc2c1)C1CCN(S(=O)(=O)c2ccc3c(c2)OC(F)(F)O3)CC1 [Compound 29, N-(benzo[d]thiazol-5-yl)-1-((2.2-difluorobenzo[d][1,3]dioxol-5-yl)sulfonyl)piperidine-4-carboxamide]
5 | > 10 | 57 | O=C(Nc1ccc2scnc2c1)C1CCN(S(=O)(=O)c2cccc(OC(F)(F)F)c2)CC1 [Compound 30, N-(benzo[d]thiazol-5-yl)-1-((3-(trifluoromethoxy)phenyl)sulfonyl)piperidine-4-carboxamide]
6 | 9.16 | 5 | Cc1cccc(S(=O)(=O)N2CCC(C(=O)Nc3ccc4scnc4c3)CC2)c1 [Compound 31, N-(benzo[d]thiazol-5-yl)-1-(m-tolylsulfonyl)piperidine-4-carboxamide]
7 | 1.93 | 3 | O=C(Nc1ccc2scnc2c1)C1CCN(S(=O)(=O)c2ccc(F)c(F)c2)CC1 [Compound 32, N-(benzo[d]thiazol-5-yl)-1-((3,4-difluorophenyl)sulfonyl)pip eridine-4-carboxamide]
8 | > 10 | 6 | Cc1ccccc1S(=O)(=O)N1CCC(C(=O)Nc2ccc3scnc3c2)CC1 [Compound 33, N-(benzo[d]thiazol-5-yl)-1-(o-tolylsulfonyl)piperidine-4-carboxamide]
9 | > 10 | 18 | COc1cccc(S(=O)(=O)N2CCC(C(=O)Nc3ccc4scnc4c3)CC2)c1 [Compound 34, N-(benzo[d]thiazol-5-yl)-1-((3-methoxyphenyl)sulfonyl)pi pendine-4-carboxamide]
10 | 0.083 | 3 | Cc1cc(S(=O)(=O)N2CCC(C(=O)Nc3ccc4scnc4c3)CC2)cnc1Cl [Compound 35, N-(benzo[d]thiazol-5-yl)-1-((6-chloro-5-methylpyridin-3-yl)sulfonyl)piperidine-4-carboxamide]
11 | > 10 | 40 | Cn1ncc2cc(S(=O)(=O)N3CCC(C(=O)Nc4ccc5scnc5c4)CC3)cnc21 [Compound 36, N-(benzo[d]thiazol-5-yl)-1-((1-methyl-1H-pyrazolo[3,4-b]pyridin-5-yl)sulfonyl)piperidine-4-carboxamide]
12 | > 10 | 60 | Cc1noc2ncc(S(=O)(=O)N3CCC(C(=O)Nc4ccc5scnc5c4)CC3)cc12 [Compound 37, N-(benzo[d]thiazol-5-yl)-1-((3-methylisoxazolo[5,4-b]pyridin-5-yl)sulfonyl)piperidine-4-carboxamide]
13 | > 10 | 27 | O=C(Nc1ccc2scnc2c1)[C@@H]1CCN(S(=O)(=O)c2cccnc2)C1 [Compound 39, (R)-N-(benzo[d]thiazol-5-yl)-1-(pyridin-3-ylsulfonyl)pyrrolidine-3-carboxamide]
14 | 0.046 | 2 | O=C(Nc1ccc2scnc2c1)C1CCN(S(=O)(=O)c2cc3c(cc2F)OCC3)CC1 [Compound 41, N-(benzo[d]thiazol-5-yl)-1-((6-fluoro-2,3-dihydrobenzofuran-5-yl)sulfonyl)piperidine-4-carboxamide]
15 | 0.039 | 2 | O=C(Nc1ccc2scnc2c1)[C@@H]1CCN(S(=O)(=O)c2cc3c(cc2F)OCC3)C1 [Compound 42, (R)-N-(benz[d]thiazol-5-yl)-1-((6-fluoro-2,3-dihydrobenzofuran-5-yl)sulfonyl)pyrrolidine-3-carboxamide]
16 | > 10 | 37 | O=C(Nc1ccc2scnc2c1)C1CCN(S(=O)(=O)c2cccc3ncccc23)CC1 [Compound 46, N-(benzo[d]thiazol-5-yl)-1-(quinolin-5-ylsulfonyl)piperidine-4-carboxamide]

Row | IC50 [µM] | EC80 MIN [%] | SMILES
17 | > 10 | 47 | Cc1nc2ccc(S(=O)(=O)N3CCC(C(=O)Nc4ccc5scnc5c4)CC3)cc2s1 [Compound 47]
18 | 1.79 | 5 | O=C(Nc1ccc2scnc2c1)C1CCN(S(=O)(=O)c2ccc3c(c2)OCCO3)CC1 [Compound 48, N-(benzo[d]thiazol-5-yl)-1-((2.3-dihydrobenzo[b][1,4]dioxin-6-yl)sulfonyl)piperidine-4-carboxamide]
19 | > 10 | 8 | Cc1cc2c(cc1S(=O)(=O)N1CCC(C(=O)Nc3ccc4scnc4c3)CC1)OCO2 [Compound 49, N-(benzo[d]thiazol-5-yl)-1-((6-methylbenzo[d][1,3]dioxol-5-yl)sulfonyl)pipcridinc-4-carboxamide]
20 | 1.85 | 4 | O=C(Nc1ccc2scnc2c1)C1CCN(S(=O)(=O)c2ccc3c(c2)CCCO3)CC1 [Compound 50, N-(benzo[d]thiazol-5-yl)-1-(chroman-6-ylsulfonyl)pipcridinc-4-carboxamide]
21 | 3.53 | 38 | N#Cc1cccc(S(=O)(=O)N2CCC(C(=O)Nc3ccc4scnc4c3)CC2)c1 [Compound 51, N-(benzo[d]thiazol-5-yl)-1-((3-cyanophenyl)sulfonyl)piperi dine4-carboxamide]
22 | > 10 | 24 | COc1ccccc1S(=O)(=O)N1CCC(C(=O)Nc2ccc3scnc3c2)CC1 [Compound 52, N-(benzo[d]thiazol-5-yl)-1-((2-methoxyphenyl)sulfonyl)pi peridine-4-carboxamide]
23 | 4.11 | 4 | O=C(Nc1ccc2scnc2c1)C1CCN(S(=O)(=O)c2ccccc2OC(F)(F)F)CC1 [Compound 53, N-(benzo[d]thiazol-5-yl)-1-((2-(trifluoromethoxy)phenyl)sulfonyl)piperidine-4-carboxamide]
24 | > 10 | 51 | O=C(Nc1ccc2scnc2c1)C1CCN(S(=O)(=O)c2cccc(C(F)(F)F)c2)CC1 [Compound 54, N-(benzo[d]thiazol-5-yl)-1-((3-(trifluoromethyl)phenyl)sulfonyl)piperidine-4-carboxamide]
25 | 0.361 | 3 | O=C(Nc1ccc2scnc2c1)[C@H]1CCN(S(=O)(=O)c2ccc3c(c2)CCO3)C1 [Compound 55, (S)-N-(benzo[d]thiazol-5-yl)-1-((2,3-dihydrobenzofuran-5-yl)sulfonyl)pyrrolidine-3-carboxamide]
26 | 0.719 | 2 | O=C(Nc1ccc2scnc2c1)[C@H]1CCN(S(=O)(=O)c2cc3c(cc2F)OCC3)C1 [Compound 56, (S)-N-(benzo[d]thiazol-5-yl)-1-((6-fluoro-2.3-dihydrobenzofuran-5-yl)sulfonyl)pyrrolidine-3-carboxamide]
27 | 0.333 | 2 | O=C(Nc1ccc2scnc2c1)C1CCN(S(=O)(=O)c2ccc3c(c2Br)CCO3)CC1 [Compound 57, N-(benzo[d]thiazol-5-yl)-1-((4-bromo-2,3-dihydrobenzofuran-5-yl)sulfonyl)piperidine-4-carboxamide]
28 | > 10 | 34 | O=C(Nc1ccc2scnc2c1)C1CCN(S(=O)(=O)c2ccc(Br)c3c2OCC3)CC1 [Compound 58, N-(benzo[d]thiazol-5-yl)-1-((4-bromo-2,3-dihydrobenzofuran-7-yl)sulfonyl)piperidine-4-carboxamide]
29 | 0.487 | 2 | O=C(Nc1ccc2scnc2c1)[C@@H]1CCN(S(=O)(=O)c2ccc3c(c2Br)CCO3)C1 [Compound 59, (R)-N-(benzo[d]thiazol-5-yl)-1-((4-bromo-2,3-dihydrobenzofuran-5-yl)sulfonyl)pyrrolidine-3-carboxamide]
30 | > 10 | 31 | O=C(Nc1ccc2scnc2c1)[C@@H]1CCN(S(=O)(=O)c2ccc(Br)c3c2OCC3)C1 [Compound 60, (R)-N-(benzo[d]thiazol-5-yl)-1-((4-bromo-2,3-dihydrobenzofuran-7-yl)sulfonyl)pyrrolidine-3-carboxamide]
31 | > 10 | 60 | O=C(Nc1ccc2scnc2c1)C1CCN(S(=O)(=O)c2c(Cl)ccc3nonc23)CC1 [Compound 61, N-(benzo[d]thiazol-5-yl)-1-((5-chlorobenzo[c][1,2,5]oxadiazol-4-yl)sulfonyl)piperidine-4-carboxamide]
